Reference: patent US10597388B2, “Pyridazinone herbicides” (FMC CORPORATION, priority 2014, dated 2020)

Columns and labels:
Assay in all cases: Test D controlled growth environment herbicide test, pre- and postemergence
Format in all cases: in vivo
[1] = tested on: deadnettle (henbit deadnettle, Lamium amplexicaule)
Description: (§1) Seeds of plant species selected from bluegrass (annual bluegrass, Poa annua), blackgrass (Alopecurus myosuroides), Canada thistle (Cirsium arvense), canarygrass (Phalaris minor), chickweed (common chickweed, Stellaria media), geranium, cutleaf (cutleaf geranium, Geranium dissectum), galium (catchweed bedstraw, Galium aparine), bromegrass, downy (downy bromegrass, Bromus tectorum), field poppy (Papaver rhoeas), field violet (Viola arvensis), foxtail, green (green foxtail, Setaria viridis), deadnettle (henbit deadnettle, Lamium amplexicaule), ryegrass, Italian (Italian ryegrass, Lolium multiflorum), kochia (Kochia scoparia), lambsquarters (Chenopodium album), oilseed rape (Brassica napus), pigweed (Amaranthus retroflexus), chamomile (scentless chamomile, Matricaria inodora), Russian thistle (Salsola kali), speedwell (bird's-eye speedwell, Veronica persica), barley, spring (spring barley, Hordeum vulgare), wheat, spring (spring wheat, Triticum aestivum), buckwheat, wild (wild buckwheat, Polygonum convolvulus), mustard, wild (wild mustard, Sinapis arvensis), oat, wild (wild oat, Avena fatua), radish, wild (wild radish, Raphanus raphanistrum), windgrass (Apera spica-venti), barley, winter (winter barley, Hordeum vulgare), and wheat, winter (winter wheat, Triticum aestivum) were planted into a silt loam soil and treated preemergence with test chemicals formulated in a non-phytotoxic solvent mixture which included a surfactant.
(§2) At the same time, these species were planted in pots containing Redi-Earth® planting medium (Scotts Company, 14111 Scottslawn Road, Marysville, Ohio 43041) comprising spaghnum peat moss, vermiculite, wetting agent and starter nutrients and treated with postemergence applications of the test chemicals formulated in the same manner. Plants ranged in height from 2 to 18 cm (1- to 4-leaf stage). Treated plants and controls were maintained in a controlled growth environment for 14 to 21 d after which time all species were compared to controls and visually evaluated. Plant response ratings, summarized in Table D, are based on a scale of 0 to 100 where 0 is no effect and 100 is complete control. A dash (-) response means no test result.

[2] = tested on: windgrass (Apera spica-venti)
Description: as §1, §2

kochia (Kochia scoparia) = tested on: kochia (Kochia scoparia)
Description: as §1, §2

[3] = tested on: pigweed (Amaranthus retroflexus)
Description: as §1, §2

[4] = tested on: galium (catchweed bedstraw, Galium aparine)
Description: as §1, §2

[5] = tested on: speedwell (bird's-eye speedwell, Veronica persica)
Description: as §1, §2

[6] = tested on: wheat, winter (winter wheat, Triticum aestivum)
Description: as §1, §2

[7] = tested on: foxtail, green (green foxtail, Setaria viridis)
Description: as §1, §2

[8] = tested on: chickweed (common chickweed, Stellaria media)
Description: as §1, §2

[9] = tested on: lambsquarters (Chenopodium album)
Description: as §1, §2

[10] = tested on: ryegrass, Italian (Italian ryegrass, Lolium multiflorum)
Description: as §1, §2

[11] = tested on: blackgrass (Alopecurus myosuroides)
Description: as §1, §2

[12] = tested on: barley, winter (winter barley, Hordeum vulgare)
Description: as §1, §2

[13] = Postemergence, 31 g ai/ha, scale 0 to 100 (0 no effect, 100 complete control)
[14] = Postemergence, 125 g ai/ha, visual rating on scale 0 (no effect) to 100 (complete control), 14 to 21 d
[15] = Postemergence, 250 g ai/ha, scale 0 to 100 (0 no effect, 100 complete control)
[16] = Preemergence, 62 g ai/ha, scale 0 to 100 (0 no effect, 100 complete control)
[17] = Preemergence, 125 g ai/ha, scale 0 to 100 (0 no effect, 100 complete control)
[18] = Preemergence, 250 g ai/ha, scale 0 to 100 (0 no effect, 100 complete control)
[19] = postemergence, 62 g ai/ha, scale 0 to 100, 0 no effect, 100 complete control

Cc1ccc2sc(C)c(-c3c(O)c(C)nn(C)c3=O)c2c1 [Compound 1, 4-(2,5-dimethylbenzo[b]thien-3-yl)-5-hydroxy-2,6-dimethyl-3(2H)-pyridazinone]
55: Plant response rating, Speedwell [5, 19]
85: Plant response rating, Windgrass [2, 17] | Plant response rating, Kochia (kochia (Kochia scoparia); [19]) | Plant response rating, Foxtail, Green [7, 15] | Plant response rating, Ryegrass, Italian [10, 14] | Plant response rating, Ryegrass, Italian [10, 15] | Plant response rating, Blackgrass [11, 17]
15: Plant response rating (scale of 0 to 100), Windgrass ([2]; Preemergence, 31 g ai/ha) | Plant response rating, Foxtail, Green [7, 16]
95: Plant response rating, Kochia (kochia (Kochia scoparia); [14]) | Plant response rating, Galium [4, 14] | Plant response rating, Galium [4, 16] | Plant response rating, Speedwell [5, 18]
25: Plant response rating, Windgrass [2, 19] | Speedwell plant response rating [5, 13]
90: Plant response rating, Pigweed [3, 19] | Plant response rating, Galium [4, 19] | Plant response rating, Chickweed [8, 14] | Plant response rating, Chickweed [8, 16] | Plant response rating, Lambsquarters [9, 14] | Plant response rating, Lambsquarters [9, 19] | Blackgrass plant response rating [11, 18]
5: Plant response rating, Wheat, Winter [6, 15] | Plant response rating, Wheat, Winter [6, 17] | Plant response rating, Wheat, Winter [6, 18] | Plant response rating, Barley, Winter [12, 13] | Plant response rating, Barley, Winter [12, 14] | Plant response rating, Barley, Winter [12, 19]
35: Deadnettle plant response rating [1, 13] | Plant response rating, Deadnettle [1, 14] | Plant response rating, Deadnettle [1, 19] | Plant response rating, Kochia (kochia (Kochia scoparia); [17]) | Plant response rating (scale of 0 to 100), Blackgrass ([11]; Preemergence, 31 g ai/ha)
20: Plant response rating (scale of 0 to 100), Lambsquarters ([9]; Preemergence, 31 g ai/ha)
50: Plant response rating, Windgrass [2, 14] | Plant response rating, Speedwell [5, 16] | Foxtail, Green plant response rating [7, 13] | Plant response rating, Blackgrass [11, 19]
0: Plant response rating (scale of 0 to 100), Deadnettle ([1]; Preemergence, 31 g ai/ha) | Plant response rating, Deadnettle [1, 16] | Plant response rating, Deadnettle [1, 17] | Plant response rating (scale of 0 to 100), Kochia (kochia (Kochia scoparia); Preemergence, 31 g ai/ha) | Plant response rating, Kochia (kochia (Kochia scoparia); [16]) | Wheat, Winter plant response rating [6, 13] | Plant response rating, Wheat, Winter [6, 14] | Plant response rating (scale of 0 to 100), Wheat, Winter ([6]; Preemergence, 31 g ai/ha) | Plant response rating, Wheat, Winter [6, 16] | Plant response rating, Wheat, Winter [6, 19] | Plant response rating (scale of 0 to 100), Barley, Winter ([12]; Preemergence, 31 g ai/ha) | Plant response rating, Barley, Winter [12, 16] | Plant response rating, Barley, Winter [12, 17] | Barley, Winter plant response rating [12, 18]
80: Pigweed plant response rating [3, 13] | Galium plant response rating [4, 13] | Chickweed plant response rating [8, 13] | Plant response rating, Chickweed [8, 19] | Plant response rating, Blackgrass [11, 15]
40: Blackgrass plant response rating [11, 13]
75: Plant response rating, Kochia (kochia (Kochia scoparia); [18]) | Plant response rating (scale of 0 to 100), Galium ([4]; Preemergence, 31 g ai/ha) | Plant response rating, Foxtail, Green [7, 14] | Plant response rating, Foxtail, Green [7, 17] | Lambsquarters plant response rating [9, 13] | Plant response rating, Ryegrass, Italian [10, 19]
65: Plant response rating, Foxtail, Green [7, 19] | Ryegrass, Italian plant response rating [10, 13]
70: Plant response rating, Deadnettle [1, 15] | Plant response rating, Windgrass [2, 15] | Kochia plant response rating (kochia (Kochia scoparia); [13]) | Plant response rating (scale of 0 to 100), Pigweed ([3]; Preemergence, 31 g ai/ha) | Plant response rating, Speedwell [5, 15] | Plant response rating (scale of 0 to 100), Speedwell ([5]; Preemergence, 31 g ai/ha) | Plant response rating, Blackgrass [11, 14] | Plant response rating, Blackgrass [11, 16]
10: Windgrass plant response rating [2, 13] | Plant response rating (scale of 0 to 100), Foxtail, Green ([7]; Preemergence, 31 g ai/ha) | Plant response rating, Barley, Winter [12, 15]
100: Plant response rating, Windgrass [2, 18] | Plant response rating, Kochia (kochia (Kochia scoparia); [15]) | Plant response rating, Pigweed [3, 14] | Plant response rating, Pigweed [3, 15] | Plant response rating, Pigweed [3, 16] | Plant response rating, Pigweed [3, 17] | Plant response rating, Pigweed [3, 18] | Plant response rating, Galium [4, 15] | Plant response rating, Galium [4, 17] | Plant response rating, Galium [4, 18] | Plant response rating, Foxtail, Green [7, 18] | Plant response rating, Chickweed [8, 15] | Plant response rating (scale of 0 to 100), Chickweed ([8]; Preemergence, 31 g ai/ha) | Plant response rating, Chickweed [8, 17] | Plant response rating, Chickweed [8, 18] | Plant response rating, Lambsquarters [9, 15] | Plant response rating, Lambsquarters [9, 16] | Plant response rating, Lambsquarters [9, 17] | Plant response rating, Lambsquarters [9, 18] | Plant response rating (scale of 0 to 100), Ryegrass, Italian ([10]; Preemergence, 31 g ai/ha) | Plant response rating, Ryegrass, Italian [10, 16] | Plant response rating, Ryegrass, Italian [10, 17] | Plant response rating, Ryegrass, Italian [10, 18]
60: Plant response rating, Deadnettle [1, 18] | Plant response rating, Windgrass [2, 16] | Plant response rating, Speedwell [5, 14]
